“And” between values parts separate entries of the source, which are not always exact repeats. Equal entries are not always repeated.
What was measured:
Nurr1:RXR heterodimer = Nurr1:RXR heterodimer (Homo sapiens, UniProt P19793+P43354); experiment: Nurr1 LBD:RXRα LBD heterodimerization assay (HTRF); assay type: biochemical; conditions: 10 µM, Figure S4
Method: (§1) To determine the molecular response of the Nurr1:RXR heterodimer on dual agonist binding, we employed homogenous time-resolved fluorescence resonance energy transfer (HTRF) based assays with labeled Nurr1 and RXR LBD proteins. Tb^3+-cryptate as streptavidin conjugate served as FRET donor and was coupled to biotinylated proteins. sGFP fusion proteins of the receptors of interest were used as FRET acceptors. Ligand effects on dimer formation were determined by titrating the sGFP-labeled dimer partner with a fixed concentration of the Tb^3+-labeled counterpart. […] The same effect was also observable for the natural product 1 (Figure S3).
(§2) Nurr1 dimerization assays (HTRF). Modulation of Nurr1 LBD homodimerization and heterodimerization of the LDBs of Nurr1 and RXRα was investigated by HTRF as reported previously4. Nurr1 LBD or RXRα LBD proteins labeled with sGFP were titrated against a fixed concentration of Tb3+-cryptate as streptavidin conjugate (Tb-SA) (610SATLF, Revvity) coupled to biotinylated Nurr1 LBD protein in the presence of test compounds at 30 µM or absence of compound as a negative control (apo). Assay solutions were prepared in buffer containing 25 mM HEPES pH 7.5, 150 mM KF, 5% (m/v) glycerol, 5 mM DTT, 0.1% (m/v) CHAPS and 1%
(§3) DMSO. The FRET donor complex was formed from biotinylated Nurr1 LBD (final concentration 0.188 nM) and Tb-SA (0.375 nM) and was kept constant. For the homodimerization assay, the FRET acceptor consisted of sGFP-Nurr1 LBD, which was titrated from 0.5 µM, while free sGFP was added to keep the total GFP content stable at 0.5 µM. […] Samples were equilibrated at room temperature for 2 h and fluorescence intensities (FI) after excitation at 340 nm were recorded at 520 nm for sGFP acceptor fluorescence and at 620 for Tb-SA donor fluorescence on a SPARK plate reader (Tecan Group Ltd.). […]
(§4) Evaluation of Nurr1-regulated gene expression. […] RNA concentration and purity were assessed using a NanoDrop One UV-vis spectrophotometer (Thermo Fisher Scientific) at 260/280 nm. […]

Nurr1 = molecular target: T1, Nurr1 (Homo sapiens, UniProt P43354); experiment: Gal4-hybrid reporter gene assay, Nurr1; assay type: cell-based; conditions: for activity on Nurr1 (fold reporter activation vs. DMSO ctrl): 30 and 100 µM, Figure S1, mean±SD, n=3; for remain. Nurr1 activity: 30 μM; for agonist activity on Gal4-Nurr1: amide analogues
T1 construct: pFA-CMV-hNurr1-LBD; expressed in transfected cells; host or cells: HEK293T
Method: (§5) modified Eagle’s medium (DMEM), high glucose supplemented with 10% fetal calf serum (FCS), sodium pyruvate (1 mM), penicillin (100 U/mL), and streptomycin (100 μg/mL) at 37 °C and 5% CO2 and seeded in 96-well plates (3×10^4 cells/well). After 24 h, the medium was changed to Opti-MEM without supplements, and the cells were transiently transfected using Lipofectamine LTX reagent (Invitrogen) according to the manufacturer’s protocol. Five hours after transfection, the cells were incubated with the test compounds in Opti-MEM supplemented with penicillin (100 U/mL), streptomycin (100 μg/mL), and 0.1% DMSO for 15 h before luciferase activity was measured using the Dual -Glo Luciferase Assay System (Promega) according to the manufacturer’s protocol on a Tecan Spark l uminometer (Tecan Deutschland GmbH, Germany). Firefly luminescence was divided by Renilla luminescence and multiplied by 1000, resulting in relative light units (RLU) to normalize for transfection efficiency and cell growth. Fold activation was obtained by dividing the mean RLU of a sample by the mean RLU of the untreated control. All samples were tested in at least three biologically independent experiments in duplicates. For dose –response curve fitting and calculation of EC50 values, the equation “[Agonist] vs. response – Variable slope (four parameters)” was used in GraphPad Prism (version 5.04, GraphPad Software, La Jolla, CA, USA). […] (10 μM, NR4A) and bexarotene (1 µM, NR2B) served as the positive control. […]
(§6) 150 μM in the same buffer containing 2-4% DMSO) in 21–26 injections (1 × 1 μL and 20 × 4 to 25 × 4 μL) with an injection interval of 120 s. As control experiments, the test compounds were titrated to the buffer, and the buffer was titrated to the protein under otherwise identical conditions. The heat rates of the compound-Nurr1 LBD titrations were analyzed using NanoAnalyze software (TA Instruments, New Castle, DE) with an independent binding model.

RXR = experiment: Gal4 hybrid reporter gene assay, RXR (subtype not stated); assay type: cell-based; conditions: for activity on RXR (fold reporter activation vs. DMSO ctrl): 30 and 100 µM, Figure S1, mean±SD, n=3; for RXR activation: amide analogues
Method: as §5, §6

RXRα = molecular target: T2, RXRα (Homo sapiens, UniProt P19793); experiment: Gal4-hybrid reporter gene assay, RXRα; assay type: cell-based; conditions: for RXRα activity at single concentration: 30 μM
T2 construct: pFA-CMV-hRXRα-LBD; expressed in transfected cells; host or cells: HEK293T
T2 sequence (P19793 227-458 limits assumed): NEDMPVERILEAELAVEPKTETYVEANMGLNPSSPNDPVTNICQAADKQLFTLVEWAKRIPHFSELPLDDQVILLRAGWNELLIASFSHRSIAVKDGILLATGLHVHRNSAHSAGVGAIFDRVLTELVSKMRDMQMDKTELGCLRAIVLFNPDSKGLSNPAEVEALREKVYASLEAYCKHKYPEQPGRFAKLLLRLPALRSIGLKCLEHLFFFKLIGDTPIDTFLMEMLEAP
Method: as §5, §6

Nurr1 homodimer = molecular target: T3, Nurr1 homodimer (Homo sapiens, UniProt P43354); experiment: Nurr1 LBD homodimerization assay (HTRF); assay type: biochemical; conditions: 30 μM, Tb3+-cryptate and sGFP labeled Nurr1 LBD
T3 construct: Tb^3+-cryptate labeled and sGFP-labeled Nurr1 LBD proteins; FRET acceptor consisted of sGFP-Nurr1 LBD
Method: as §1, §2, §3, §4

RXRγ = molecular target: T4, RXRγ (Homo sapiens, UniProt P48443); experiment: Gal4-hybrid reporter gene assay, RXRγ; assay type: cell-based; conditions: for RXRγ activity at single concentration: 30 μM
T4 construct: pFA-CMV-hRXRγ-LBD; expressed in transfected cells; host or cells: HEK293T
T4 sequence (P48443 231-459 limits assumed): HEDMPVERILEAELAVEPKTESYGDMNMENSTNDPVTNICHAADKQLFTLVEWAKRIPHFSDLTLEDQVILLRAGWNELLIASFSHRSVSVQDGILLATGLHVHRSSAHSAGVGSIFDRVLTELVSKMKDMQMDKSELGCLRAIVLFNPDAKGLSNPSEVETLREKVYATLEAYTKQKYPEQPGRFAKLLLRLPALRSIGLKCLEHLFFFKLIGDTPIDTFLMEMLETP
Method: as §5, §6

RXRβ = molecular target: T5, RXRβ (Homo sapiens, UniProt P28702); experiment: Gal4-hybrid reporter gene assay, RXRβ; assay type: cell-based; conditions: for RXRβ activity at single concentration: 30 μM
T5 construct: CMV-hRXRβ-LBD; expressed in transfected cells; host or cells: HEK293T
T5 sequence (P28702 296-529 limits assumed): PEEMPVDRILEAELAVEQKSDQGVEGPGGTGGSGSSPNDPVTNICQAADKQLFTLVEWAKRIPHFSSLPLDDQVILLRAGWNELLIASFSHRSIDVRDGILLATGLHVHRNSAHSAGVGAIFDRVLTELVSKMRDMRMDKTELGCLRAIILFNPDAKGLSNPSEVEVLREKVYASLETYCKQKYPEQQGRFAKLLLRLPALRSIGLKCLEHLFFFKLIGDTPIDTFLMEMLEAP
Method: as §5, §6

Nurr1 LBD = molecular target: T6, Nurr1 LBD (Homo sapiens, UniProt P43354); experiment: Isothermal titration calorimetry, recombinant Nurr1 LBD; assay type: binding; conditions: ITC
T6 construct: made in house
Method: (§7) Isothermal titration calorimetry. ITC experiments for ligand binding to Nurr1 and RXR were conducted on an Affinity ITC instrument (TA Instruments, New Castle, DE) at 25 °C with a stirring rate of 75 rpm using recombinantly expressed ligand binding domain proteins as described previously5,6. The respective LBD protein (12–25 μM) in buffer (20 mM Tris pH 7.5, 100 mM NaCl, 5% glycerol) containing 2-4% DMSO was titrated with the test compounds (100-150 μM in the same buffer containing 2-4% DMSO) in 21–26 injections (1 × 1 μL and 20 × 4 to 25 × 4 μL) with an injection interval of 120 s. As control experiments, the test compounds were titrated to the buffer, and the buffer was titrated to the protein under otherwise identical conditions. The heat rates of the compound-Nurr1 LBD titrations were analyzed using NanoAnalyze software (TA Instruments, New Castle, DE) with an independent binding model.

RXRα LBD = molecular target: T7, RXRα LBD (Homo sapiens, UniProt P19793); experiment: Isothermal titration calorimetry, recombinant RXRα LBD; assay type: binding; conditions: ITC
T7 construct: made in house
T7 sequence (P19793 227-458 limits assumed): T2 sequence (P19793 227-458 limits assumed)
Method: as §7

[1] = Gal4-hybrid reporter gene assay
[2] = Gal4-hybrid reporter gene assay, mean±S.E.M., n≥3

T1 sequence (P43354 360-595 limits assumed): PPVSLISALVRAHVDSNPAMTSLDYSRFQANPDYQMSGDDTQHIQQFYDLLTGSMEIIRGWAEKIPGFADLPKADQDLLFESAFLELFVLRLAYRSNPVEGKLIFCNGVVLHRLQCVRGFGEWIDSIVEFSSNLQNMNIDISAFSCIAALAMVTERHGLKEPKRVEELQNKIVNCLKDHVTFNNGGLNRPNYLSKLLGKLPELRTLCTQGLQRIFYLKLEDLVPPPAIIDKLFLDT
T6 sequence (P43354 360-595 limits assumed): as above
T3 sequence (P43354 360-595 limits assumed): as above
Chain of Nurr1:RXR heterodimer (P43354 360-595 limits assumed, one chain of several): as the sequence (P43354 360-595 limits assumed) above

Row | SMILES | activity on Nurr1 (fold reporter activation vs. DMSO ctrl) (Nurr1) | activity on RXR (fold reporter activation vs. DMSO ctrl) (RXR) | RXRα activity at single concentration (RXRα) | Kd(Nurr1 LBD) (Nurr1 LBD) | Kd(RXRα LBD) (RXRα LBD) | RXRγ activity at single concentration (RXRγ) | remain. Nurr1 activity (Nurr1; [1]) | agonist activity on Gal4-Nurr1 (Nurr1) | RXR activation (RXR) | RXRβ activity at single concentration (RXRβ) | other results
1 | CC1(C)CCC(C)(C)c2cc(C3(c4ccc(C(=O)O)cc4)OCCO3)ccc21 [SR11237, reference compound] | – | – | – | – | – | – | – | – | – | – | Nurr1:RXR heterodimer formation (dimer strength) (Nurr1:RXR heterodimer): Diminished dimer strength
2 | CC(=O)O[C@@H]1CC(C)=C2[C@H]1[C@H](C)CC[C@H]2/C=C(\C)C(=O)O [VA-OAc, acetoxy-valerenic acid, reference compound] | no activity | no activity | – | – | – | – | – | – | – | – | –
3 | CC1=C2[C@@H]([C@H](C)CC[C@H]2/C=C(\C)C(=O)O)[C@H](O)C1 [VA-OH, hydroxy-valerenic acid, reference compound] | no activity | no activity | – | – | – | – | – | – | – | – | –
4 | CC1=C2[C@H](/C=C(\C)C(=O)O)CC[C@@H](C)[C@H]2CC1 [compound 1, valerenic acid] | – | – | – | – | – | – | – | – | – | – | max. act. (RXR) α (RXRα; [1]): 9±1 fold; EC50 (RXRα; [2]): 27 µM; Nurr1 homodimer formation (Nurr1 homodimer): same effect; max. act. (RXR) γ (RXRγ; [1]): 4±1 fold; EC50 (RXRγ; [2]): 43 µM; max. act. (Nurr1) (Nurr1; Gal4-hybrid reporter gene assay, max. fold activation): 1.3 fold and 1.3±0.1 fold; EC50 (Nurr1; [2]): 3 ± 1 µM; max. act. (RXR) β (RXRβ; [1]): 69±1 fold; EC50 (RXRβ; [2]): 5.2 µM
5 | Cc1c2c(n(-c3ccc(CC(N)=O)cc3)c1C)CCC(F)(F)C2 [compound 4] | – | – | α: inactive (30 μM) β: inactive (30 μM) γ: inactive (30 μM) | no binding detected | no binding detected | α: inactive (30 μM) β: inactive (30 μM) γ: inactive (30 μM) | 86±9% remain. Nurr1 activity (30 μM) | lost agonist activity | failed to activate RXR | α: inactive (30 μM) β: inactive (30 μM) γ: inactive (30 μM) | –
6 | Cc1c(C)n(-c2ccc(CC(N)=O)cc2)c2ccc(F)cc12 [compound 5] | – | – | α: inactive (30 μM) β: inactive (30 μM) γ: inactive (30 μM) | no binding detected | no binding detected | α: inactive (30 μM) β: inactive (30 μM) γ: inactive (30 μM) | 85±7% remain. Nurr1 activity (30 μM) | lost agonist activity | failed to activate RXR | α: inactive (30 μM) β: inactive (30 μM) γ: inactive (30 μM) | –

— PMC7618597, “Dual Nurr1/RXR agonism of valerenic acid and synthetic mimetics enables dimer-selective Nurr1 modulation” (ACS medicinal chemistry letters, 2025)
